This is an account of results in patent EP0984975B1, “MULTICYCLIC ERYTHROMYCIN DERIVATIVES” (Abbott Laboratories, priority 1997, dated 1998).

Common to all, as to assay: In vitro assay of antibacterial activity (agar dilution MIC)
What all share (assay type): cell-based

Experiment [1] concerns CANDIDA ALBICANS CCH 442. To be noted: BHI agar, 35-37 °C for 20 to 24 hours, unit assumed. The protocol: (§1) Representative compounds of the present invention were assayed in vitro for antibacterial activity as follows: Twelve petri dishes containing successive aqueous dilutions of the test compound mixed with 10 mL of sterilized Brain Heart Infusion (BHI) agar (Difco 0418-01-5) were prepared. Each plate was inoculated with 1:100 (or 1:10 for slow-growing strains, such as Micrococcus and Streptococcus) dilutions of up to 32 different microorganisms, using a Steers replicator block. The inoculated plates were incubated at 35-37 °C for 20 to 24 hours. In addition, a control plate, using BHI agar containing no test compound, was prepared and incubated at the beginning and end of each test.
(§2) An additional plate containing a compound having known susceptibility patterns for the organisms being tested and belonging to the same antibiotic class as the test compound was also prepared and incubated as a further control, as well as to provide test-to-test comparability. Erythromycin A was used for this purpose.
(§3) After incubation, each plate was visually inspected. The minimum inhibitory concentration (MIC) was defined as the lowest concentration of drug yielding no growth, a slight haze, or sparsely isolated colonies on the inoculum spot as compared to the growth control.

The subject of experiment [2] is EN[…] ATCC 8043. To be noted: ENTEROCOCCUS FAECIUM ATCC 8043; BHI agar, 35-37 °C for 20 to 24 hours; unit assumed. The protocol:
as §1, §2, §3

In experiment [3] the test system is ESCHERICHIA COLI DC-2. To be noted: BHI agar, 35-37 °C for 20 to 24 hours, unit assumed. The protocol: as §1, §2, §3
For experiment [4], the system named is ESCHERICHIA COLI JUHL. To be noted: ESCHERICHIA COLI JUHL; BHI agar, 35-37 °C for 20 to 24 hours; unit assumed. The protocol: as §1, §2, §3
In experiment [5] the test system is ESCHERICHIA COLI SS. To be noted: ESCHERICHIA COLI SS; BHI agar, 35-37 °C for 20 to 24 hours; unit assumed. The protocol:
as §1, §2, §3

The test system of experiment [6] is MYCOBACTERIUM SMEGMATIS ATCC 114. To be noted: MYCOBACTERIUM SMEGMATIS ATCC 114; BHI agar, 35-37 °C for 20 to 24 hours; unit assumed. The protocol: as §1, §2, §3
The test system of experiment [7] is M[…] ATCC 4698. To be noted: MICROCOCCUS LUTEUS ATCC 4698; BHI agar, 35-37 °C for 20 to 24 hours; unit assumed. The protocol:
as §1, §2, §3

The subject of experiment [8] is M[…] ATCC 9341. The following applies: MICROCOCCUS LUTEUS ATCC 9341; BHI agar, 35-37 °C for 20 to 24 hours; unit assumed. The protocol: as §1, §2, §3
Experiment [9] deals with N. ASTEROIDES ATCC 9970. The following applies: BHI agar, 35-37 °C for 20 to 24 hours, unit assumed. The protocol:
as §1, §2, §3

Experiment [10] deals with STAPHYLOCOCCUS AUREUS 1775. The following applies: BHI agar, 35-37 °C for 20 to 24 hours, unit assumed. The protocol:
as §1, §2, §3

In experiment [11] the test system is STAPHYLOCOCCUS AUREUS A-5278. The following applies: BHI agar, 35-37 °C for 20 to 24 hours, unit assumed. The protocol: as §1, §2, §3
Experiment [12] concerns STAPHYLOCOCCUS AUREUS A5177. To be noted: BHI agar, 35-37 °C for 20 to 24 hours, unit assumed. The protocol:
as §1, §2, §3

Experiment [13] deals with STAPHYLOCOCCUS AUREUS ATCC 6538P. The following applies: BHI agar, 35-37 °C for 20 to 24 hours, unit assumed. The protocol: as §1, §2, §3
The test system of experiment [14] is STAPHYLOCOCCUS AUREUS CMX 553. The following applies: BHI agar, 35-37 °C for 20 to 24 hours, unit assumed. The protocol: as §1, §2, §3
Experiment [15] deals with STAPHYLOCOCCUS AUREUS CMX 642A. To be noted: BHI agar, 35-37 °C for 20 to 24 hours, unit assumed. The protocol:
as §1, §2, §3

Experiment [16] has as its system STAPHYLOCOCCUS AUREUS NCTC10649M. The following applies: BHI agar, 35-37 °C for 20 to 24 hours, unit assumed. The protocol:
as §1, §2, §3

In experiment [17] the test system is STAPHYLOCOCCUS EPIDERMIDIS 3519. The following applies: STAPHYLOCOCCUS EPIDERMIDIS 3519; BHI agar, 35-37 °C for 20 to 24 hours; unit assumed. The protocol:
as §1, §2, §3

The test system of experiment [18] is STREPTOCOCCUS BOVIS A-5169. The following applies: STREPTOCOCCUS BOVIS A-5169; BHI agar, 35-37 °C for 20 to 24 hours; unit assumed. The protocol: as §1, §2, §3
In experiment [19] the test system is STREPTOCOCCUS PYOGENES 930. To be noted: STREPTOCOCCUS PYOGENES 930; BHI agar, 35-37 °C for 20 to 24 hours; unit assumed. The protocol:
as §1, §2, §3

Experiment [20] concerns STREPTOCOCCUS PYOGENES EES61. To be noted: STREPTOCOCCUS PYOGENES EES61; BHI agar, 35-37 °C for 20 to 24 hours; unit assumed. The protocol:
as §1, §2, §3

Experiment [21] concerns STREPTOCOCCUS PYOGENES PIU 2548. The following applies: STREPTOCOCCUS PYOGENES PIU 2548; BHI agar, 35-37 °C for 20 to 24 hours; unit assumed. The protocol: as §1, §2, §3
Experiment [22] has as its system STR[…] 508. To be noted: STREPTOCOCCUS AGALACTIAE CMX 508; BHI agar, 35-37 °C for 20 to 24 hours; unit assumed. The protocol: as §1, §2, §3

As for `CC[C@H]1OC(=O)[C@H](C)C(=O)[C@H](C)[C@@H](O[C@@H]2O[C@H](C)C[C@H](N(C)C)[C@H]2O)[C@](C)(OC)C[C@@H](C)C2Nc3ccccc3N3C(=O)O[C@@]1(C)[C@H]3[C@H]2C` (single isomer, unassigned) [Ex 3, Compound of Formula (I): R^1 is methoxy; R^2 is H, R^3 is H, the double bond is absent, A, B, D and E are H, and Y and Z taken together with the atom to which they are attached form an oxo group], the Antibacterial Activity (MIC's) in [1] was more than 100 µg/mL; in experiment [2], 12.5 µg/mL; in experiment [3] it was more than 100 µg/mL; in experiment [4], more than 100 µg/mL; in [5], 100 µg/mL; in experiment [6] it was 50 µg/mL. The Antibacterial Activity (MIC's) in [7] was 25 µg/mL; in experiment [8] it was 3.1 µg/mL; in experiment [9] it was 6.2 µg/mL; in experiment [10] it was more than 100 µg/mL; in [11], more than 100 µg/mL; in experiment [12], 25 µg/mL. Further, the Antibacterial Activity (MIC's) in experiment [13] came to 25 µg/mL; in experiment [14], 50 µg/mL; in experiment [15] it was 50 µg/mL; in [16], 50 µg/mL; in [17], 50 µg/mL; in experiment [18] it was 1.56 µg/mL. Further, the Antibacterial Activity (MIC's) was more than 100 µg/mL in [19], 3.1 µg/mL in experiment [20], 25 µg/mL in experiment [21] and 3.1 µg/mL in experiment [22].

In the case of `CC[C@H]1OC(=O)[C@H](C)C(=O)[C@H](C)[C@@H](O[C@@H]2O[C@H](C)C[C@H](N(C)C)[C@H]2O)[C@](C)(OC)C[C@@H](C)C2=Nc3cc(C)ccc3N3C(=O)O[C@@]1(C)[C@H]3[C@H]2C` [Ex 4, Compound of Formula (I): R^1 is methoxy; R^2 is H, R^3 is absent, the double bond is present, A, B, and E are H, D is methyl, and Y and Z taken together with the atom to which they are attached form an oxo group], the Antibacterial Activity (MIC's) was more than 100 µg/mL in experiment [1]; more than 100 µg/mL in experiment [3]; more than 100 µg/mL in experiment [4]; 0.2 µg/mL in experiment [5]; 100 µg/mL in [6]; 0.2 µg/mL in experiment [7]. Further, the Antibacterial Activity (MIC's) in experiment [8] is 0.1 µg/mL; in [9], 0.1 µg/mL; in experiment [11] it was more than 100 µg/mL; in [12], 0.78 µg/mL; in experiment [13], 0.78 µg/mL; in [15], 0.78 µg/mL. The Antibacterial Activity (MIC's) in experiment [16] was 0.78 µg/mL; in [18] it was 0.01 µg/mL; in experiment [19] it was more than 100 µg/mL; in experiment [20] it was 0.01 µg/mL; in experiment [21], 0.2 µg/mL; in experiment [22], 0.01 µg/mL.

On to `CC[C@H]1OC(=O)[C@H](C)C(=O)[C@H](C)[C@@H](O[C@@H]2O[C@H](C)C[C@H](N(C)C)[C@H]2O)[C@](C)(OC)C[C@@H](C)C2=Nc3cc(C#N)ccc3N3C(=O)O[C@@]1(C)[C@H]3[C@H]2C` [Ex 6, Compound of Formula (I): R^1 is methoxy; R^2 is H, R^3 is absent, the double bond is present, A, B, and E are H, D is cyano and Y and Z taken together with the atom to which they are attached form an oxo group], for which the Antibacterial Activity (MIC's) in experiment [1] was more than 100 µg/mL; in experiment [2], 0.05 µg/mL; in experiment [3], more than 100 µg/mL; in experiment [4], more than 100 µg/mL; in experiment [5], 3.1 µg/mL; in experiment [6], 0.1 µg/mL. Further, the Antibacterial Activity (MIC's) in experiment [7] is 0.39 µg/mL; in experiment [8], 0.05 µg/mL; in [9] it was 0.39 µg/mL; in [10], more than 100 µg/mL; in [11], more than 100 µg/mL; in experiment [13], 0.39 µg/mL. Also, the Antibacterial Activity (MIC's) in experiment [14] was 0.39 µg/mL; in experiment [15], 0.39 µg/mL; in experiment [16] it was 0.39 µg/mL; in experiment [17], 0.2 µg/mL; in [18], 0.01 µg/mL; in [19] it was more than 100 µg/mL. In addition, the Antibacterial Activity (MIC's) amounted to 0.01 µg/mL in [20], 0.39 µg/mL in experiment [21] and 0.05 µg/mL in experiment [22].
